Experimental data published in patent US9771430B2, “Method of treating a metabolic disorder induced by obesity in a subject in need thereof by administering MK2/3 inhibitors” (THE TRUSTEES OF COLUMBIA UNIVERSITY IN THE CITY OF NEW YORK, priority 2011, dated 2017).

Legend:
G6pc and Pck1 mRNA = G6pc and Pck1 mRNA (RT-qPCR) in primary mouse hepatocytes; type: cell-based; details: glucagon / forskolin
Experimental: FIG. 32A-E. Related to FIG. 26—p38. FIG. 32A Mice were fed ad libitum or fasted for 12 h. Liver phospho-p38, total p38, p-MK2, total MK-2, and β-actin were assayed by immunoblot. FIG. 32B WT HCs were serum-depleted overnight and then incubated for 5 h with 100 nm glucagon in serum-free media with or without SB202190; or glucagon was added to HCs from P38a^fl/fl mice treated with adeno-LacZ (control) or adeno-Cre. RNA was assayed for G6pc and Pck1 mRNA (*P<0.05; mean±S.E.M.). FIG. 32C HCs from fasting WT and Camk2g^−/− mice were assayed for p-p38, total p38, and β-actin. FIG. 32D WT mice were injected i.p. with 12.5 mg kg^−1 body weight of p38 inhibitor (SB202190) or vehicle control. 12 h later, the mice were injected with an additional dose of SB202190 and fasted overnight. The livers were assayed for nuclear FoxO1, nucleophosmin, p-MK2, total MK-2, and β-actin. The correlation between nuclear FoxO1 and p-MK2 band intensities is shown in the graph. FIG. 32E Adeno-GFP-FoxO1-transduced HCs were serum-depleted overnight, and then incubated for 5 h in serum-free media with SB202190 or vehicle (Veh) control. FoxO1 localization was assessed by indirect immunofluorescence (Bar, 10 μm; *P<0.05; mean±S.E.M.).
FIGS. 53A-B. MK-2 regulates hepatic FoxO1 subcellular localization and hepatic G6Pc and Pck1. FIG. 53A. Adeno-GFP-FoxO1-transduced HCs were serum-depleted overnight, and then incubated for 30 min in serum-free media with 2 uM MK-2 inhibitor or vehicle (Veh) control. FoxO1 localization was assessed by indirect immunofluorescence (Bar, […]; *P<0.005; mean±S.E.M.). FIG. 53B WT HCs were serum-depleted overnight and then incubated for 5 h with 100 nm glucagon in serum-free media with or without MK-2 inhibitor. RNA was assayed for G6pc and Pck1 mRNA (*P<0.005; mean±S.E.M.). MK-2 Inhibitor is from Calbiochem (cat#475864): 2-(2-Quinolin-3-ylpyridin-4-yl)-1,5,6,7-tetrahydro-4H-pyrrolo-[3,2-c]pyridin-4-one.
FIG. 69. MK-2 inhibitor suppresses forskolin-induced Pck1 and G6Pc induction in primary hepatocytes. Primary hepatocytes from WT mice were serum-depleted overnight and then pre-treated with 300 nM MK-2 inhibitor (compound 28) or vehicle for 1 h. Cells were then treated with 2 μM forskolin in serum-free media with or without the inhibitor for 4 h. RNA was assayed for G6pc and Pck1 mRNA by RT-qPCR. *, P<0.0001.
Primary mouse HCs were isolated from 8- to 12-week-old mice as described previously (Matsumoto et al., 2002). For most experiments, the HCs were serum-depleted overnight by incubation in medium containing 0.5% fetal calf serum and were then incubated for 5 h in serum-free media, with individual treatments noted in the figure legends. HCs were transduced with adenoviral constructs 12 h after plating, and experiments were conducted 24 h after transduction. Transfections with WT, 7A- and 9A-Foxo1 were carried out using jetPEI™-hepatocyte DNA transfection reagent (Polyplus-transfection, Inc.) according to manufacturer's instructions.
Immunoblot and RT-qPCR assays were performed as previously described (Timmins et al., 2009). Total RNA was extracted from HCs using the RNeasy kit (Qiagen). cDNA was synthesized from 2 μg total RNA using oligo (dT) and Superscript II (Invitrogen). Nuclear extraction from liver was performed using the Nuclear Extraction Kit from Panomics according to the manufacturer's instructions. […] Whether their origin is alternative splicing or post-translational modification remains to be determined.

IP3R = assay: IICR in freshly isolated peritoneal cavity macrophages of Xestospongin C-treated ob/ob mice; type: in vivo, mouse; details: treatment of ob/ob mice
From the text: FIGS. 50A-M. The role of IP3R in obesity/insulin resistance induced hyperglycemia and gluconeogenesis. FIG. 50A. Evidence that Xestospongin C Treatment of ob/ob Mice Inhibits IP3R Assay of IICR in Freshly Isolated Peritoneal Cavity Macrophages. FIG. 50B-E. Inhibition of IP3R Reduces Fasting Blood Glucose Levels in ob/ob Mice. FIG. 50F. Inhibition of IP3R Reduces Hepatic Expression of PEPCK, G6Pase, and PGC1α in ob/ob. FIG. 50G-I. Inhibition of IP3R Reduces Expression of PEPCK, G6Pase, and PGC1α in Palmitate-Treated Hepatocytes as a Model of ER Stress and Insulin Resistance. FIG. 50J-K. Inhibition of IP3R Reduces Expression of G6Pase and PEPCK in Akt-Inhibited Hepatocytes as a Model of Insulin Resistance. FIG. 50L. IP3R Activity is Required for Forskolin-Induced TORC2 Dephosphorylation. FIG. 50M. IP3R Activation is Required for TORC2 Nuclear Retention.

[1] = tested on: IP3-mediated Ca2+ release; details: cited from earlier work
calcineurin = assay: Calcineurin activity in primary hepatocytes; type: cell-based, mouse
Experimental: HEK293T (ATCC) cells were cultured in DMEM containing 10% FBS (HyClone), […] penicillin-streptomycin. Mouse primary hepatocytes were isolated and cultured as previously described (18). Cellular fractionation studies were conducted as previously reported (18). For reporter studies, Ad-CRE-luc infected hepatocytes (1 pfu per cell) were exposed to glucagon (Gcg, 100 nM) for 2˜4 h. For cyclosporine A (CsA, 10 μM) or okadaic acid (OA, 100 nM) or cell permeable calcineurin autoinhibitory peptide (10 μM) or CN585 (100 μM) or Calyculin A (10 nM) or Xestospongin C (Xc, 2 μM) or H89 (30 μM) or BAPTA (50 μM) inhibition, hepatocytes were pre-treated with the inhibitors for one hour. Luciferase activities were normalized to β-galactosidase activity from adenoviral-encoded RSV β-gal. Calcineurin activity (test kit from Enzo Life Sciences) and cellular cAMP levels (test kit from Cayman Chemical Company) were measured according to manufacturer's instructions.

C1CCC[C@H]2CCCN3CC[C@@H](CCCCCC[C@@H]4CCCN5CC[C@@H](CC1)O[C@@H]45)O[C@@H]23 [Xestospongin C]
induction of the gluconeogenic program (G6pc and Pck1 mRNA): blocked | IP3R (IICR) in peritoneal cavity macrophages (IP3R): Inhibits | selectivity over the skeletal isoform of the ryanodine receptor type 1 (RyR-1) [1]: high selectivity | IC50 ([1]; read-out: IC50, blocker of IP3-mediated Ca2+ release): 358 nM | calcineurin activation in response to glucagon and forskolin (calcineurin): disrupted
